Data from ChEMBL document CHEMBL1201862, “PubChem BioAssay data set” (2004).
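Step 1: Grow cells in 96-well plates. Step 2: Expose to compound for 48 hours at 5 concentrations. Step 3: Interpolate endpoints linearly; if unreached, use highest concentration. GI50 is the concentration that inhibits growth by half.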 Activity calls are given as the source filed them. No stated cut-off is given here; in the data, active = GI50 up to about 1.1 µM and inactive = higher.

What was measured:
Assay in all cases: NCI tumour cell line growth inhibition, 48 h
OVCAR-3 = test system: OVCAR-3
HOP-62 = test system: HOP-62
NCI-H23 = test system: NCI-H23
CAKI-1 = test system: CAKI-1
A549 = test system: A549
SF-295 = test system: SF-295
Malme-3M = test system: Malme-3M
HCC 2998 = test system: HCC 2998
DMS-114 = test system: DMS-114
UO-31 = test system: UO-31
SNB-75 = test system: SNB-75
U-251 = test system: U-251
SK-OV-3 = test system: SK-OV-3
NCI-H460 = test system: NCI-H460
BT-549 = test system: BT-549
Hs-578T = test system: Hs-578T
DU-145 = test system: DU-145
MDA-MB-231 = test system: MDA-MB-231
NCI/ADR-RES = test system: NCI/ADR-RES
MCF7 = test system: MCF7

Measured: GI50

c1ccc2cc(-c3cc4ccccc4s3)ccc2c1
inactive: OVCAR-3 > 100 µM | HOP-62 > 100 µM | NCI-H23 > 100 µM | CAKI-1 > 100 µM | A549 > 100 µM | SF-295 > 100 µM | Malme-3M > 100 µM | HCC 2998 > 100 µM | DMS-114 > 100 µM | UO-31 > 100 µM | SNB-75 23.1 µM | U-251 > 100 µM | SK-OV-3 22.1 µM | NCI-H460 > 100 µM

O=[N+]([O-])c1cc2c(cc1O)[nH]c1cccc([N+](=O)[O-])c12
inactive: OVCAR-3 > 100 µM | HOP-62 > 100 µM | NCI-H23 > 100 µM | CAKI-1 > 100 µM | A549 > 100 µM | SF-295 > 100 µM | Malme-3M > 100 µM | HCC 2998 > 100 µM | DMS-114 > 100 µM | UO-31 > 100 µM | SNB-75 > 100 µM | NCI-H460 > 100 µM

Nc1nc(SCc2ccccc2Cl)c2ncn(C3OC(CO)C(O)C3O)c2n1 (configuration not stated)
inactive: OVCAR-3 80.4 µM | HOP-62 > 100 µM | NCI-H23 > 100 µM | CAKI-1 > 100 µM | A549 96.6 µM | SF-295 59.4 µM | Malme-3M > 100 µM | HCC 2998 > 100 µM | DMS-114 43.5 µM | UO-31 29.1 µM | SNB-75 23.3 µM | U-251 > 100 µM | SK-OV-3 > 100 µM | NCI-H460 > 100 µM

CCC(=O)c1cn(C)c(=O)c2ccccc12
inactive: OVCAR-3 > 100 µM | HOP-62 > 100 µM | NCI-H23 > 100 µM | CAKI-1 > 100 µM | A549 > 100 µM | SF-295 > 100 µM | Malme-3M > 100 µM | HCC 2998 > 100 µM | DMS-114 > 100 µM | UO-31 > 100 µM | SNB-75 36.5 µM | U-251 > 100 µM | SK-OV-3 > 100 µM | NCI-H460 > 100 µM

O=S(=O)(O)CS(=O)(=O)OCCCl
inactive: OVCAR-3 > 100 µM | HOP-62 > 100 µM | NCI-H23 > 100 µM | CAKI-1 > 100 µM | A549 > 100 µM | SF-295 > 100 µM | Malme-3M > 100 µM | HCC 2998 > 100 µM | DMS-114 > 100 µM | UO-31 > 100 µM | SNB-75 > 100 µM | U-251 > 100 µM | SK-OV-3 > 100 µM | NCI-H460 > 100 µM

Cc1ccc(C(=O)O/N=C2/CCCCC2CN(C)C)cc1 (configuration not stated)
inactive: OVCAR-3 > 100 µM | HOP-62 > 100 µM | NCI-H23 > 100 µM | CAKI-1 > 100 µM | A549 > 100 µM | SF-295 > 100 µM | Malme-3M > 100 µM | HCC 2998 > 100 µM | DMS-114 > 100 µM | UO-31 > 100 µM | SNB-75 > 100 µM | U-251 > 100 µM | SK-OV-3 > 100 µM | NCI-H460 > 100 µM

C1CN(c2nnc(N3CCC3)nn2)C1
inactive: OVCAR-3 > 92.7 µM | BT-549 > 65.9 µM | HOP-62 > 85.7 µM | NCI-H23 30.6 µM | CAKI-1 > 94.4 µM | A549 > 100 µM | Hs-578T 39 µM | SF-295 37.3 µM | Malme-3M 44.4 µM | HCC 2998 > 100 µM | DU-145 > 100 µM | MDA-MB-231 > 42.6 µM | NCI/ADR-RES > 53 µM | MCF7 > 50.2 µM | DMS-114 21.3 µM | UO-31 > 100 µM | SNB-75 21 µM | U-251 > 71.8 µM | SK-OV-3 > 100 µM | NCI-H460 67.9 µM
